Laboratory results reported in ChEMBL document CHEMBL4359906, “Design and synthesis of new N-terminal fatty acid modified-antimicrobial peptide analogues with potent in vitro biological activity” (Eur J Med Chem, 2019).
≈ marks a conversion by molar mass, not a printed value. Calls of active or inactive are those of the source. No cut-off for these calls is given here. Where a SMILES comes first, the peptide text is derived from it.

Experiments:
[1] = system: Escherichia coli; assay: Antibacterial activity against Escherichia coli ATCC 25922 after 18 hrs by CLSI based broth microdilution method; assay type: functional; details: ATCC 25922, 18 h
[2] = system: Pseudomonas aeruginosa; assay: Antibacterial activity against Pseudomonas aeruginosa ATCC 27853 after 18 hrs by CLSI based broth microdilution method; assay type: functional; details: ATCC 27853, 18 h
[3] = system: Klebsiella pneumoniae; assay: Antibacterial activity against Klebsiella pneumoniae ATCC 700603 after 18 hrs by CLSI based broth microdilution method; assay type: functional; details: Klebsiella pneumoniae, 700603, 18 h
[4] = system: Escherichia coli; assay: Antibacterial activity against Escherichia coli ATCC 43837 after 18 hrs by CLSI based broth microdilution method; assay type: functional; details: ATCC 43837, 18 h
[5] = system: Staphylococcus aureus; assay: Antibacterial activity against Staphylococcus aureus ATCC 25923 after 18 hrs by CLSI based broth microdilution method; assay type: functional; details: ATCC 25923, 18 h
[6] = system: Escherichia coli; assay: Ratio of MIC for antibacterial activity against Escherichia coli ATCC 25922 after 15 passages to MIC for antibacterial activity against Escherichia coli ATCC 25922 incubated for 18 hrs; assay type: functional
[7] = system: Staphylococcus aureus; assay: Antibacterial activity against methicillin-resistant Staphylococcus aureus 936 after 18 hrs by CLSI based broth microdilution method; assay type: functional; details: Staphylococcus aureus, 936, 18 h
[8] = system: Bacillus subtilis; assay: Antibacterial activity against Bacillus subtilis ATCC 23857 after 18 hrs by CLSI based broth microdilution method; assay type: functional; details: ATCC 23857, 18 h
[9] = system: Escherichia coli; assay: Antibacterial activity against Escherichia coli ATCC 25922 at 0.5 times MIC incubated for 18 hrs measured at 1 passages by CLSI based broth microdilution method; assay type: functional, organism-based
[10] = system: Staphylococcus aureus; assay: Antibacterial activity against Staphylococcus aureus ATCC 25923 after 18 hrs in presence of FeCl3 by CLSI based broth microdilution method (reference value: 64 microM); assay type: functional; details: ATCC 25923, 18 h
[11] = system: Escherichia coli; assay: Ratio of antibacterial activity against Escherichia coli ATCC 25922 in presence of MgCl2 to antibacterial activity against Escherichia coli ATCC 25922; assay type: functional
[12] = system: Erythrocyte; assay: Hemolytic activity in human RBC measured after 1 hr by microplate reader analysis; assay type: ADME, cell-based
[13] = system: Escherichia coli; assay: Ratio of antibacterial activity against Escherichia coli ATCC 25922 in presence of FeCl3 to antibacterial activity against Escherichia coli ATCC 25922; assay type: functional
[14] = system: Pseudomonas aeruginosa; assay: Potentiation of polymyxin B-induced antibacterial activity against Pseudomonas aeruginosa ATCC 27853 assessed as FICI after 18 hrs by checker board assay; assay type: functional
[15] = system: Staphylococcus aureus; assay: Antibacterial activity against Staphylococcus aureus ATCC 25923 after 18 hrs in presence of NaCl by CLSI based broth microdilution method (reference value: 64 microM); assay type: functional; details: ATCC 25923, 18 h
[16] = system: Staphylococcus aureus; assay: Ratio of antibacterial activity against Staphylococcus aureus ATCC 25923 in presence of KCl to antibacterial activity against Staphylococcus aureus ATCC 25923; assay type: functional
[17] = system: Escherichia coli; assay: Antimicrobial activity against Escherichia coli ATCC 25922 preincubated for 6 hrs in presence of 10% mouse serum and measured after 18 hrs by CLSI-based broth microdilution assay (reference value: 64 microM); assay type: functional
[18] = system: Staphylococcus aureus; assay: Antibacterial activity against Staphylococcus aureus ATCC 25923 after 18 hrs in presence of KCl by CLSI based broth microdilution method (reference value: 64 microM); assay type: functional; details: ATCC 25923, 18 h
[19] = system: Escherichia coli; assay: Induction of membrane disruption in Escherichia coli ATCC 25922 assessed as rough membrane surface at 4 times of MIC after 2 hrs by SEM analysis; assay type: functional, organism-based
[20] = Selectivity index, ratio of MHC10 for human RBC to geometric mean of peptide MIC for gram positive bacteria; assay type: toxicity; details: human red blood cells, read-out: Selectivity Index
[21] = system: Staphylococcus aureus; assay: Ratio of antibacterial activity against Staphylococcus aureus ATCC 25923 in presence of NaCl to antibacterial activity against Staphylococcus aureus ATCC 25923; assay type: functional
[22] = Selectivity index, ratio of MHC10 for human RBC to geometric mean of peptide MIC for gram negative bacteria; assay type: toxicity; details: human red blood cells, read-out: Selectivity Index
[23] = system: Escherichia coli; assay: Ratio of antibacterial activity against Escherichia coli ATCC 25922 in presence of NaCl to antibacterial activity against Escherichia coli ATCC 25922; assay type: functional
[24] = system: Escherichia coli; assay: Antimicrobial activity against Escherichia coli ATCC 25922 at 1 mM preincubated for 6 hrs in presence of 0.2 ug/ml trypsin and measured after 18 hrs by microplate reader analysis; assay type: functional, organism-based
[25] = system: Escherichia coli; assay: Antimicrobial activity against Escherichia coli ATCC 25922 at 1 mM preincubated for 6 hrs in presence of 2 ug/ml chymotrypsin and measured after 18 hrs by microplate reader analysis; assay type: functional, organism-based
[26] = system: Staphylococcus aureus; assay: Ratio of antibacterial activity against Staphylococcus aureus ATCC 25923 in presence of MgCl2 to antibacterial activity against Staphylococcus aureus ATCC 25923; assay type: functional
[27] = system: Klebsiella pneumoniae; assay: Potentiation of rifampicin-induced antibacterial activity against Klebsiella pneumoniae ATCC 700603 assessed as FICI after 18 hrs by checker board assay; assay type: functional
[28] = system: Escherichia coli; assay: Disruption of membrane integrity in Escherichia coli ATCC 25922 assessed as membrane damage by measuring PI fluorescence at 4 times of MIC incubated for 1 hr by PI dye based flow cytometric analysis (reference value: 1.35%); assay type: functional
[29] = system: Escherichia coli; assay: Potentiation of polymyxin B-induced antibacterial activity against Escherichia coli ATCC 25922 assessed as FICI after 18 hrs by checker board assay; assay type: functional
[30] = system: Escherichia coli; assay: Induction of membrane disruption in Escherichia coli ATCC 25922 assessed as degeneration in membrane at 4 times of MIC after 2 hrs by SEM analysis; assay type: functional, organism-based
[31] = system: Escherichia coli; assay: Ratio of antibacterial activity against Escherichia coli ATCC 25922 in presence of KCl to antibacterial activity against Escherichia coli ATCC 25922; assay type: functional
[32] = system: Escherichia coli; assay: Potentiation of rifampicin-induced antibacterial activity against Escherichia coli ATCC 25922 assessed as FICI after 18 hrs by checker board assay; assay type: functional
[33] = system: Escherichia coli; assay: Antibacterial activity against Escherichia coli ATCC 25922 after 18 hrs in presence of NaCl by CLSI based broth microdilution method (reference value: 64 microM); assay type: functional; details: ATCC 25922, 18 h
[34] = system: Escherichia coli; assay: Induction of membrane disruption in Escherichia coli ATCC 25922 assessed as fracture in membrane at 4 times of MIC after 2 hrs by SEM analysis; assay type: functional, organism-based
[35] = system: Klebsiella pneumoniae; assay: Potentiation of polymyxin B-induced antibacterial activity against Klebsiella pneumoniae ATCC 700603 assessed as FICI after 18 hrs by checker board assay; assay type: functional
[36] = system: Pseudomonas aeruginosa; assay: Potentiation of rifampicin-induced antibacterial activity against Pseudomonas aeruginosa ATCC 27853 assessed as FICI after 18 hrs by checker board assay; assay type: functional
[37] = system: Escherichia coli; assay: Antibacterial activity against Escherichia coli ATCC 25922 after 18 hrs in presence of FeCl3 by CLSI based broth microdilution method (reference value: 64 microM); assay type: functional; details: ATCC 25922, 18 h
[38] = system: Escherichia coli; assay: Disruption of membrane integrity in Escherichia coli ATCC 25922 assessed as membrane damage by measuring PI fluorescence at 2 times of MIC incubated for 1 hr by PI dye based flow cytometric analysis (reference value: 1.35%); assay type: functional
[39] = system: Escherichia coli; assay: Induction of membrane disruption in Escherichia coli ATCC 25922 assessed as corrugated membrane surface at 4 times of MIC after 2 hrs by SEM analysis; assay type: functional, organism-based
[40] = system: Staphylococcus aureus; assay: Ratio of antibacterial activity against Staphylococcus aureus ATCC 25923 in presence of FeCl3 to antibacterial activity against Staphylococcus aureus ATCC 25923; assay type: functional
[41] = system: Escherichia coli; assay: Induction of ROS generation in Escherichia coli ATCC 25922; assay type: functional, organism-based
[42] = system: Escherichia coli; assay: Antimicrobial activity against Escherichia coli ATCC 25922 preincubated for 1 hr in presence of 10% mouse serum and measured after 18 hrs by CLSI-based broth microdilution assay (reference value: 64 microM); assay type: functional
[43] = system: Staphylococcus aureus; assay: Antibacterial activity against Staphylococcus aureus ATCC 25923 after 18 hrs in presence of MgCl2 by CLSI based broth microdilution method (reference value: 64 microM); assay type: functional; details: ATCC 25923, 18 h
[44] = system: Escherichia coli; assay: Ratio of MIC for Escherichia coli ATCC 25922 preincubated for 6 hrs in presence of 10% mouse serum and measured after 18 hrs to MIC for antibacterial activity against Escherichia coli ATCC 25922 after 18 hrs; assay type: functional
[45] = system: Escherichia coli; assay: Antibacterial activity against Escherichia coli ATCC 25922 after 18 hrs in presence of MgCl2 by CLSI based broth microdilution method (reference value: 64 microM); assay type: functional; details: ATCC 25922, 18 h
[46] = system: Escherichia coli; assay: Antibacterial activity against Escherichia coli ATCC 25922 after 18 hrs in presence of KCl by CLSI based broth microdilution method (reference value: 64 microM); assay type: functional; details: ATCC 25922, 18 h
[47] = system: Escherichia coli; assay: Ratio of MIC for Escherichia coli ATCC 25922 preincubated for 1 hr in presence of 10% mouse serum and measured after 18 hrs to MIC for antibacterial activity against Escherichia coli ATCC 25922 after 18 hrs; assay type: functional
[48] = system: Staphylococcus aureus; assay: Antibiofilm activity against Staphylococcus aureus ATCC 25923 at 1 to 2 times of MIC after 24 hrs by crystal violet staining based assay; assay type: functional, organism-based

SMILES: CO[C@H]1/C=C/O[C@@]2(C)Oc3c(C)c(O)c4c(O)c(c(/C=N/N5CCN(C)CC5)c(O)c4c3C2=O)NC(=O)/C(C)=C\C=C\[C@H](C)[C@H](O)[C@@H](C)[C@@H](O)[C@@H](C)[C@H](OC(C)=O)[C@@H]1C [RIFAMPIN]
- MIC [1]: 4 µM (≈ 3.29 µg/mL)
- MIC [2]: 32 µM (≈ 26.3 µg/mL)
- MIC [3]: 32 µM (≈ 26.3 µg/mL)
- MIC [4]: 2 µM (≈ 1.65 µg/mL)
- MIC [5]: < 1 µM
- Ratio [6]: >32
- MIC [7]: < 1 µM
- MIC [8]: < 1 µM
- Activity [9]: Active

SMILES: CC[C@H](C)[C@H](NC(=O)[C@H](CCCNC(=N)N)NC(=O)[C@H](CCCCN)NC(=O)[C@H](CC(C)C)NC(=O)[C@H](CC(C)C)NC(=O)CN)C(=O)N[C@@H](CCCCN)C(=O)N[C@H](C(=O)N[C@@H](CC(C)C)C(=O)N[C@@H](CC(C)C)C(N)=O)[C@@H](C)O [ANOPLIN] (H-GLLKRIKTLL-NH2)
- MIC [10]: 128 µM
- MIC [1]: 64 µM (≈ 73.8 µg/mL)
- Ratio [11]: 2 - 4
- MHC10 [12]: > 256 µM
- Ratio [13]: 2 - 4
- fractional inhibitory concentration index (FICI) [14]: 0.3125
- MIC [15]: > 128 µM
- MIC [2]: 16 µM (≈ 18.5 µg/mL)
- Ratio [16]: 2 - 4
- MIC [3]: 64 µM (≈ 73.8 µg/mL)
- MIC [4]: 8 µM (≈ 9.23 µg/mL)
- MIC [5]: 64 µM (≈ 73.8 µg/mL)
- MIC [17]: > 128 µM
- MIC [18]: 64 µM
- Activity [19]: Active
- selectivity ratio [20]: 11.3
- Ratio [21]: 2 - 4
- selectivity ratio [22]: 13.5
- Ratio [23]: 2 - 4
- Activity [24]: inactive
- Activity [25]: inactive
- Ratio [26]: 2 - 4
- fractional inhibitory concentration index (FICI) [27]: 0.125
- Activity [28]: 62.1%
- fractional inhibitory concentration index (FICI) [29]: 0.1875
- Activity [30]: Active
- Ratio [31]: 2 - 4
- fractional inhibitory concentration index (FICI) [32]: 0.125
- MIC [33]: 128 µM
- Activity [34]: Active
- fractional inhibitory concentration index (FICI) [35]: 0.3125
- MIC [7]: 64 µM (≈ 73.8 µg/mL)
- fractional inhibitory concentration index (FICI) [36]: 0.1875
- MIC [37]: 32 µM
- Activity [38]: 20.4%
- Activity [39]: Active
- Ratio [40]: 2 - 4
- Activity [41]: inactive
- MIC [42]: 64 µM
- MIC [43]: > 128 µM
- Ratio [44]: >2
- MIC [8]: 8 µM (≈ 9.23 µg/mL)
- MIC [45]: 32 µM
- MIC [46]: 32 µM
- Ratio [47]: 1
- inhibition [48]: Active
